Read-outs that look alike come from different tables or passages of the source.
Tests used:
Sta. aureus Smith S-424 = assay: Antibacterial activity (MIC), serial dilution method; format: cell-based; settings: Staphylococcus aureus, SMITHS424; nutrient agar, 37° C., 20 hours
E. coli A-0003 = assay: as above; format: cell-based; settings: Escherichia coli, A0003; nutrient agar, 37° C., 20 hours
Ps. aeruginosa NC-5 = assay: as above; format: cell-based; settings: Pseudomonas aeruginosa
Pro. vulgaris OX19 = assay: as above; format: cell-based; settings: Proteus vulgaris, nutrient agar, 37° C., 20 hours
[1] = tested on: Shigella dysenteriae Shigae; assay: microbe, parasite or virus in culture; format: cell-based; settings: 20 h
[2] = tested on: Kleb. pneumoniae 22# 3038 (A-20680); assay: Antibacterial activity (MIC), serial dilution method; format: cell-based; settings: Klebsiella pneumoniae
Sta. aureus ApO-1 = assay: as above; format: cell-based; settings: Staphylococcus aureus, APO1; nutrient agar, 37° C., 20 hours
Sal. species D-0006 = assay: as above; format: cell-based; settings: nutrient agar, 37° C., 20 hours
Procedure: (§1) Antimicrobial spectra of 1-N-(L-isoseryl)- and 1-N-(L-4-amino-2-hydroxybutyryl)-3',4'-dideoxy-3',4'-didehydrokanamycin B (1-AHP-eno-DKB and 1-AHB-eno-DKB) are shown in the following table together with that of 1-N-(L-4-amino-2-hydroxybutyryl)-3',4'-dideoxykanamycin B (1-AHB-DKB).
(§2) The minimum inhibitory concentrations (mcg/ml) of the compounds tested against various microorganisms were determined according to a serial dilution method using nutrient agar medium at 37° C., the estimation being effected after 20 hours-incubation.

Sal. species D-0029 = assay: as above; format: cell-based; settings: nutrient agar, 37° C., 20 hours
Procedure: as §1, §2

E. coli W 677(A-20684) = assay: as above; format: cell-based; settings: Escherichia coli; nutrient agar, 37° C., 20 hours
Procedure: as §1, §2

Sal. species D-0001 = assay: as above; format: cell-based; settings: nutrient agar, 37° C., 20 hours
Procedure: as §1, §2

Kleb. pneumoniae = assay: as above; format: cell-based; settings: Klebsiella pneumoniae
Sal. typhimurium LT-2 = assay: as above; format: cell-based; settings: Salmonella enterica
B. subtilis ATCC 6633 = assay: as above; format: cell-based; settings: Bacillus subtilis, ATCC6633; nutrient agar, 37° C., 20 hours
Ps. aeruginosa M-0148 = assay: as above; format: cell-based; settings: Pseudomonas aeruginosa
[3] = tested on: drug-resistant microbial strains including Pseudomonas aeruginosa; settings: cited from earlier work
Sta. aureus N-0089 = assay: Antibacterial activity (MIC), serial dilution method; format: cell-based; settings: Staphylococcus aureus, N0089; nutrient agar, 37° C., 20 hours
Ps. aeruginosa M-0002 = assay: as above; format: cell-based; settings: Pseudomonas aeruginosa
Pro. morganii K-ono = assay: as above; format: cell-based; settings: Morganella morganii; nutrient agar, 37° C., 20 hours
Ps. aeruginosa M-0032 = assay: as above; format: cell-based; settings: Pseudomonas aeruginosa
Serra. marcescens No. 2 = assay: as above; format: cell-based; settings: Serratia marcescens, nutrient agar, 37° C., 20 hours
[4] = tested on: Sta. epidermidis ATCC 14990; assay: as above; format: cell-based; settings: Staphylococcus epidermidis, ATCC14990; nutrient agar, 37° C., 20 hours
[5] = tested on: Sal. enteritidis No. 11(T-okai); assay: as above; format: cell-based; settings: Salmonella enterica
Pro. mirabilis J-0010 = assay: as above; format: cell-based; settings: Proteus mirabilis
Pro. vulgaris J-0001 = assay: as above; format: cell-based; settings: Proteus vulgaris
Ps. aeruginosa IAM-1007 = assay: as above; format: cell-based; settings: Pseudomonas aeruginosa
Ps. aeruginosa E-2 = assay: as above; format: cell-based; settings: Pseudomonas aeruginosa
Serra. marcescens No. 1 = assay: as above; format: cell-based; settings: Serratia marcescens, nutrient agar, 37° C., 20 hours
[6] = tested on: E. coli (M) Cast. & Chalm.NIHJ JC-2; assay: as above; format: cell-based; settings: Escherichia coli
[7] = tested on: E. coli JR 66/W 677(A-20683); assay: as above; format: cell-based; settings: Escherichia coli
Sta. epidermidis 109 = assay: as above; format: cell-based; settings: Staphylococcus epidermidis, nutrient agar, 37° C., 20 hours
[8] = tested on: Ps. aeruginosa IID 1210 (IFO 3455); assay: as above; format: cell-based; settings: Pseudomonas aeruginosa
[9] = tested on: Sta. aureus Rosenbach FDA 209-P JC-1; assay: as above; format: cell-based; settings: Staphylococcus aureus, FDA209; nutrient agar, 37° C., 20 hours
Sal. typhi 0-901-W = assay: as above; format: cell-based; settings: Salmonella enterica, 20 h
E. coli No. 29 = assay: as above; format: cell-based; settings: Escherichia coli, nutrient agar, 37° C., 20 hours
Pro. rettgelli J-0026 = assay: as above; format: cell-based
Str. faecalis ATCC 8043 = assay: as above; format: cell-based; settings: Enterococcus faecalis, ATCC8043; nutrient agar, 37° C., 20 hours
Serra. marcescens I-0043 = assay: as above; format: cell-based; settings: Serratia marcescens
Sta. aureus No. 26 = assay: as above; format: cell-based; settings: Staphylococcus aureus, nutrient agar, 37° C., 20 hours
B. anthracis No. 119 = assay: microbe, parasite or virus in culture; format: cell-based; settings: Bacillus anthracis, NO.119, 20 h
E. coli A-0001 = assay: Antibacterial activity (MIC), serial dilution method; format: cell-based; settings: Escherichia coli, A0001; nutrient agar, 37° C., 20 hours
various microorganisms = assay: antimicrobial activity (in words); format: cell-based
Procedure: as §2

[10] = tested on: kanamycin-resistant microbial strains including Pseudomonas aeruginosa; settings: cited from earlier work
[11] = nutrient agar, 37° C., 20 hours, read-out: MIC
[12] = M0002, nutrient agar, 37° C., 20 hours, read-out: MIC
[13] = NC5, nutrient agar, 37° C., 20 hours, read-out: MIC
[14] = M0032, nutrient agar, 37° C., 20 hours, read-out: MIC
[15] = J0010, nutrient agar, 37° C., 20 hours, read-out: MIC
[16] = J0001, nutrient agar, 37° C., 20 hours, read-out: MIC
[17] = IAM1007, nutrient agar, 37° C., 20 hours, read-out: MIC
[18] = E2, nutrient agar, 37° C., 20 hours, read-out: MIC
[19] = NIHJJC2, nutrient agar, 37° C., 20 hours, read-out: MIC

NCCC(O)C(=O)NC1CC(N)C(OC2OC(CN)CCC2N)C(O)C1OC1OC(CO)C(O)C(N)C1O [1-AHB-DKB, 1-N-(L-4-amino-2-hydroxybutyryl)-3',4'-dideoxykanamycin B]
6.25 µg/mL: MIC (Ps. aeruginosa NC-5; NC5, 20 h) | MIC (Ps. aeruginosa M-0148; M0148, 20 h) | MIC (Ps. aeruginosa E-2; E2, 20 h) | MIC (Pro. rettgelli J-0026; 20 h)
50 µg/mL: MIC (Str. faecalis ATCC 8043)
0.05 µg/mL: MIC [9]
3.13 µg/mL: MIC (E. coli A-0003) | MIC (Pro. vulgaris OX19) | MIC (Sal. species D-0029) | MIC (Ps. aeruginosa M-0002; [12]) | MIC (Pro. morganii K-ono) | MIC (Serra. marcescens No. 2) | MIC (Serra. marcescens No. 1) | MIC (E. coli No. 29) | MIC (E. coli A-0001)
12.5 µg/mL: MIC (Ps. aeruginosa M-0032; M0032, 20 h) | MIC ([8]; 20 h)
0.2 µg/mL: MIC (Sta. aureus ApO-1) | MIC (E. coli W 677(A-20684)) | MIC (Sta. epidermidis 109)
high activity: activity against a wide variety of drug-resistant microbial strains [3]
0.1 µg/mL: MIC (B. subtilis ATCC 6633) | MIC [4] | MIC (B. anthracis No. 119)
1.56 µg/mL: MIC (Sal. species D-0006) | MIC (Sal. species D-0001) | MIC (Sal. typhimurium LT-2; 20 h) | MIC ([5]; 20 h) | MIC (Pro. mirabilis J-0010; J0010, 20 h) | MIC (Pro. vulgaris J-0001; J0001, 20 h) | MIC (Ps. aeruginosa IAM-1007; IAM1007, 20 h) | MIC ([6]; NIHJJC2, 20 h) | MIC ([7]; 20 h) | MIC (Serra. marcescens I-0043; I0043, 20 h)
0.78 µg/mL: MIC [1] | MIC [2, 11] | MIC (Kleb. pneumoniae; [11]) | MIC (Sta. aureus No. 26)
0.39 µg/mL: MIC (Sta. aureus Smith S-424) | MIC (Sta. aureus N-0089) | MIC (Sal. typhi 0-901-W)

NCCC(O)C(=O)NC1CC(N)C(OC2OC(CN)C=CC2N)C(O)C1OC1OC(CO)C(O)C(N)C1O [1-AHB-eno-DKB, 1-N-(L-4-amino-2-hydroxybutyryl)-3',4'-dideoxy-3',4'-didehydrokanamycin B]
0.2 µg/mL: MIC (Sta. aureus Smith S-424) | MIC (B. subtilis ATCC 6633) | MIC (Sta. aureus N-0089) | MIC (Sta. epidermidis 109)
0.78 µg/mL: MIC [1] | MIC (E. coli W 677(A-20684)) | MIC (Sal. typhi 0-901-W) | MIC (Sta. aureus No. 26)
50 µg/mL: MIC (Str. faecalis ATCC 8043)
0.1 µg/mL: MIC [4] | MIC [9] | MIC (B. anthracis No. 119)
6.25 µg/mL: MIC (Ps. aeruginosa NC-5; [13]) | MIC (Serra. marcescens No. 2) | MIC (Serra. marcescens No. 1) | MIC [8, 11] | MIC (Pro. rettgelli J-0026; [11])
3.13 µg/mL: MIC (E. coli A-0003) | MIC (Pro. vulgaris OX19) | MIC (Sal. species D-0001) | MIC (Ps. aeruginosa M-0148; M0148, nutrient agar, 37° C., 20 hours, read-out: MIC) | MIC (Ps. aeruginosa M-0002; [12]) | MIC (Ps. aeruginosa E-2; [18]) | MIC [6, 19] | MIC [7, 11] | MIC (E. coli No. 29) | MIC (E. coli A-0001)
high antimicrobial activity: antimicrobial activity (various microorganisms)
12.5 µg/mL: MIC (Ps. aeruginosa M-0032; [14])
1.56 µg/mL: MIC [2, 11] | MIC (Sal. species D-0006) | MIC (Kleb. pneumoniae; [11]) | MIC (Sal. typhimurium LT-2; [11]) | MIC (Pro. morganii K-ono) | MIC [5, 11] | MIC (Pro. mirabilis J-0010; [15]) | MIC (Pro. vulgaris J-0001; [16]) | MIC (Ps. aeruginosa IAM-1007; [17]) | MIC (Serra. marcescens I-0043; I0043, nutrient agar, 37° C., 20 hours, read-out: MIC)
0.39 µg/mL: MIC (Sta. aureus ApO-1)

NCC1C=CC(N)C(OC2C(N)CC(NC(=O)C(O)CN)C(OC3OC(CO)C(O)C(N)C3O)C2O)O1 [1-AHP-eno-DKB, 1-N-(L-isoseryl)-3',4'-dideoxy-3',4'-didehydrokanamycin B]
25 µg/mL: MIC (Pro. rettgelli J-0026; [11])
50 µg/mL: MIC (Str. faecalis ATCC 8043)
6.25 µg/mL: MIC (E. coli A-0003) | MIC (Sal. species D-0006) | MIC (Sal. species D-0029) | MIC (Sal. species D-0001) | MIC (Ps. aeruginosa M-0032; [14]) | MIC (E. coli No. 29) | MIC (E. coli A-0001)
0.39 µg/mL: MIC (Sta. aureus Smith S-424) | MIC (Sta. aureus N-0089) | MIC (Sta. aureus No. 26)
0.1 µg/mL: MIC [9]
0.78 µg/mL: MIC (Sta. aureus ApO-1) | MIC (E. coli W 677(A-20684)) | MIC (Ps. aeruginosa IAM-1007; [17])
1.56 µg/mL: MIC [1] | MIC ([2]; 20 h) | MIC (Kleb. pneumoniae; 20 h) | MIC (Ps. aeruginosa M-0148; M0148, 20 h) | MIC (Ps. aeruginosa M-0002; M0002, 20 h) | MIC (Sal. typhi 0-901-W) | MIC (Serra. marcescens I-0043; I0043, 20 h)
3.13 µg/mL: MIC (Ps. aeruginosa NC-5; [13]) | MIC (Pro. vulgaris OX19) | MIC (Sal. typhimurium LT-2; [11]) | MIC (Pro. morganii K-ono) | MIC (Serra. marcescens No. 2) | MIC [5, 11] | MIC (Pro. mirabilis J-0010; [15]) | MIC (Pro. vulgaris J-0001; [16]) | MIC (Ps. aeruginosa E-2; [18]) | MIC (Serra. marcescens No. 1) | MIC [6, 19] | MIC [7, 11] | MIC [8, 11]
0.2 µg/mL: MIC (B. subtilis ATCC 6633) | MIC [4] | MIC (Sta. epidermidis 109) | MIC (B. anthracis No. 119)

NCC1C=CC(N)C(OC2C(N)CC(NC(=O)C(O)CN)C(OC3OC(CO)C(O)C(N)C3O)C2O)O1 (stereo not shown) [1-N-isoseryl-3',4'-dideoxy-3',4'-didehydrokanamycin B]
high antimicrobial activity: antimicrobial activity (various microorganisms)

NCC1CCC(N)C(OC2C(N)CC(NC(=O)C(O)CN)C(OC3OC(CO)C(O)C(N)C3O)C2O)O1 (stereo not shown) [1-N-isoseryl-3',4'-dideoxykanamycin B]
high activity: activity against a wide variety of drug-resistant microbial strains [3]

NCC1CCC(N)C(OC2C(N)CC(N)C(OC3OC(CO)C(O)C(N)C3O)C2O)O1 (stereo not shown) [3',4'-Dideoxykanamycin B]
high activity: activity against kanamycin-resistant microbial strains [10]

Source: patent publication US4268664A, “Process for the preparation of 1-N-isoseryl- or 1-N-(L-4-amino-2-hydroxybutyryl)-3',4'-dideoxykanamycin B and intermediates thereof” (Zaidan Hojin Biseibutsu Kagaku Kenkyu Kai, priority 1978, dated 1981)
